In patent publication US8802597B2, “Herbicidal pyrimidines” (E I du Pont de Nemours and Company, priority 2003, dated 2014):

Columns and labels:
Type in all cases: in vivo
[1] = system: wild mustard (SINAR; Sinapis arvensis); experiment: Test I mixtures of compound 9 with metsulfuron-methyl and chlorsulfuron-metsulfuron-methyl (5:1); settings: applied alone
Source text: (§1) This test evaluated the effect of mixtures of compound 9 with metsulfuron-methyl and with a 5:1 by weight combination of chlorsulfuron and metsulfuron-methyl on several plant species. Seeds of test plants consisting of wheat (TRZAW; Triticum aestivum), wild buckwheat, (POLCO; Polygonum convolvulus), redroot pigweed (AMARE; Amaranthus retroflexus), wild mustard (SINAR; Sinapis arvensis), catchweed bedstraw (GALAP; Galium aparine), Russian thistle (SASKR; Salsola kali), common chickweed (STEME; Stellaria media), kochia (KCHSC; Kochia scoparia), and lambsquarters (CHEAL; Chenopodium album) were planted into a blend of loam soil and sand. Plants were grown in a greenhouse using supplemental lighting to maintain a photoperiod of about 14 hours; daytime and nighttime temperatures were about 23° C. and 16° C., respectively. Balanced fertilizer was applied through the watering system. The plants were grown for 10 to 23 days so that at time of treatment the plants ranged from 2- to 8-leaf stage. Treatments consisted of Compound 9, metsulfuron-methyl, and chlorsulfuron-metsulfuron-methyl (5:1) alone and in combination. The treatments were formulated in a non-phytotoxic solvent mixture which included a surfactant and applied as a foliage spray using a volume of 280-458 L/ha. Each treatment was replicated three times. […] Treated plants and controls were maintained in the greenhouse and watered as needed with care to not wet the foliage for the first 24 hours after treatment. The effects on the plants approximately 17 days after treatment were visually compared to untreated controls. Plant response ratings were calculated as the means of the three replicates, based on a scale of 0 to 100 where 0 is no effect and 100 is complete control. Colby's Equation was used to determine the herbicidal effects expected from the mixtures.

[2] = system: lambsquarters (CHEAL; Chenopodium album); experiment: as above; settings: applied alone
Source text: as §1

[3] = system: wheat (TRZAW; Triticum aestivum); experiment: as above; settings: applied alone
Source text: as §1

[4] = system: Russian thistle (SASKR; Salsola kali); experiment: as above; settings: applied alone
Source text: as §1

[5] = system: wild buckwheat (POLCO; Polygonum convolvulus); experiment: as above; settings: applied alone
Source text: as §1

[6] = system: redroot pigweed (AMARE; Amaranthus retroflexus); experiment: as above; settings: applied alone
Source text: as §1

[7] = system: kochia (KCHSC; Kochia scoparia); experiment: as above; settings: applied alone
Source text: as §1

[8] = system: catchweed bedstraw (GALAP; Galium aparine); experiment: as above; settings: applied alone
Source text: as §1

[9] = system: common chickweed (STEME; Stellaria media); experiment: as above; settings: applied alone
Source text: as §1

[10] = system: junglerice (ECHCO; Echinochloa colona); experiment: Test J mixtures of compound 58 with azimsulfuron, flooded paddy; settings: 21 days, scale 0-100
Source text: This test evaluated the effect of mixtures of compound 58 with azimsulfuron on several plant species. Three plastic pots (ca. 16-cm diameter) per rate were partially filled with sterilized Tama silt loam soil comprising a 35:50:15 ratio of sand, silt and clay and 2.6% organic matter. Separate plantings for each of the three pots were as follows. Seeds from the U.S. of ducksalad (HETLI; Heteranthera limosa), smallflower umbrella sedge (CYPDI; Cyperus difformis) and purple redstem (AMMCO; Ammannia coccinea), were planted into one 16-cm pot for each rate. Seeds from the U.S. of bearded sprangletop (LEFUF; Leptochloa fusca ssp. fascicularis), one stand of 9 or 10 water-seeded rice seedlings (ORYSW; Oryza sativa cv. ‘Japonica-M202’), and one stand of 6 transplanted rice seedlings (ORYSP; Oryza sativa cv. ‘Japonica-M202’) were planted into one 16-cm pot for each rate. Seeds from the U.S. of barnyardgrass (ECHCG; Echinochloa crus-galli), late watergrass (ECOR2; Echinochloa oryzicola), early watergrass (ECHOR; Echinochloa oryzoides) and junglerice (ECHCO; Echinochloa colona) were planted into one 16-cm pot for each rate. Plantings were sequential so that crop and weed species were at the 2.0 to 2.5-leaf stage at time of treatment.
Potted plants were grown in a greenhouse with day/night temperature settings of 29.5/26.7° C., and supplemental balanced lighting was provided to maintain a 16-hour photoperiod. Test pots were maintained in the greenhouse until test completion.
At time of treatment, test pots were flooded to 3 cm above the soil surface and then treated by application directly to the paddy water of test compounds formulated in a non-phytotoxic solvent mixture which included a surfactant. The pots were maintained at the 3-cm water depth for the duration of the test. Treatments consisted of compound 58 and azimsulfuron alone and in combination. Effects of treatments on rice and weeds were visually evaluated by comparison to untreated controls after 21 days. Plant response ratings were calculated as the means of the three replicates and are summarized in Table J. The ratings are based on a scale of 0 to 100 where 0 is no effect and 100 is complete control. A dash (-) response means no test result. Colby's Equation was used to determine the herbicidal effects expected from the mixtures.

[11] = system: Canada thistle (Cirsium arvense); experiment: Test L field study, Compound 1 and nicosulfuron; settings: Compound 1 125 g a.i./ha, approximately 56 days after treatment
Source text: (§2) This field study included treatments that consisted of Compound 1 and nicosulfuron alone and in combination on Canada thistle (Cirsium arvense) and daisy fleabane (Erigeron spp.). The plants ranged from 20 to 30 cm in height at the time of application during the month of May in the vicinity of Newark, Del. Compound 1 was formulated as a wettable powder containing 25% active ingredient by weight. Nicosulfuron was in the form of Accent® Herbicide, a water-dispersible granule formulation containing 75% active ingredient by weight. The formulations were dispersed in water in the sprayer tank before treatment. The treatments were made using a backpack sprayer calibrated to deliver 24 gallons per acre (224 L per hectare) to a 10 ft×30 ft (3 m×9 m) plot. Each treatment was replicated two times. The effects on the plants approximately 56 days after treatment were visually compared to untreated controls. Plant response ratings were calculated as the means of the two replicates, based on a scale of 0 to 100 where 0 is no effect and 100 is complete control. Colby's Equation was used to determine the herbicidal effects expected from the mixture.

[12] = system: daisy fleabane (Erigeron spp.); experiment: Test L field study, Compound 1 and nicosulfuron; settings: Compound 1 125 g a.i./ha, approximately 56 days after treatment
Source text: as §2

## COC(=O)c1nc(C2CC2)nc(N)c1Cl [Compound 9, methyl 6-amino-5-chloro-2-cyclopropyl-4-pyrimidinecarboxylate]
[1]; 4 g a.i./ha
  SINAR Obsd. (observed effect): 45
[1]; 8 g a.i./ha
  SINAR Obsd. (observed effect): 47
[2]; 4 g a.i./ha
  CHEAL Obsd. (observed effect): 45
[2]; 8 g a.i./ha
  CHEAL Obsd. (observed effect): 83
[3]; Chlorsulfuron-Metsulfuron-Methyl series, 8 g a.i./ha
  TRZAW Obsd. (observed effect): 30
[3]; Chlorsulfuron-Metsulfuron-Methyl series, 16 g a.i./ha
  TRZAW Obsd. (observed effect): 43
[3]; Metsulfuron-Methyl series, 4 g a.i./ha
  TRZAW Obsd. (observed effect): 8
[3]; Metsulfuron-Methyl series, 8 g a.i./ha
  TRZAW Obsd. (observed effect): 12
[4]; 4 g a.i./ha
  SASKR Obsd. (observed effect): 50
[4]; 8 g a.i./ha
  SASKR Obsd. (observed effect): 73
[5]; 4 g a.i./ha
  POLCO Obsd. (observed effect): 17
[5]; 8 g a.i./ha
  POLCO Obsd. (observed effect): 27
[6]; 4 g a.i./ha
  AMARE Obsd. (observed effect): 62
[6]; 8 g a.i./ha
  AMARE Obsd. (observed effect): 70
[7]; 4 g a.i./ha
  KCHSC Obsd. (observed effect): 70
[7]; 8 g a.i./ha
  KCHSC Obsd. (observed effect): 87
[8]; 4 g a.i./ha
  GALAP Obsd. (observed effect): 83
[8]; 8 g a.i./ha
  GALAP Obsd. (observed effect): 87
[9]; 4 g a.i./ha
  STEME Obsd. (observed effect): 47
[9]; 8 g a.i./ha
  STEME Obsd. (observed effect): 55

## COC(=O)c1nc(-c2ccc(Cl)cc2)nc(N)c1Cl [Compound 58, methyl 6-amino-5-chloro-2-(4-chlorophenyl)-4-pyrimidinecarboxylate]
[10]; Compound 58 16 g a.i./ha alone
  ECHCO Obsd.: 0
[10]; Compound 58 32 g a.i./ha alone
  ECHCO Obsd.: 0
[10]; Compound 58 64 g a.i./ha alone
  ECHCO Obsd.: 0

## CCOC(=O)c1nc(C2CC2)nc(N)c1Br [Compound 1, ethyl 6-amino-5-bromo-2-cyclopropyl-4-pyrimidinecarboxylate]
[11]
  Obsd. observed effect (0 to 100 scale): 73
[12]
  Obsd. observed effect (0 to 100 scale): 53
